# Measured values reported in BindingDB's records for doi:10.1107/s0907444999007350 (Berlex, 1999).
# Target: Coagulation factor X (Homo sapiens, UniProt P00742)
# Experiment: Enzyme Inhibition Assay
# Conditions: pH 7.5; 22 °C
# Experimental: The enzyme activities were determined kinetically as the initial rate of cleavage of a peptide p-nitroanilide. Km for enzyme and substrate was determined using four substrate dilutions. Enzyme was incubated with test compounds for 10 min; the reaction was then started by the addition of the substrate. […] IC50 values for inhibitors were determined from the dose response curve by fitting the data to the Hill equation. Ki,app values were calculated as the IC50/2, with the IC50 value determined at a substrate concentration equal to Km
# Chain of Coagulation factor X (P00742 41-179 limits assumed): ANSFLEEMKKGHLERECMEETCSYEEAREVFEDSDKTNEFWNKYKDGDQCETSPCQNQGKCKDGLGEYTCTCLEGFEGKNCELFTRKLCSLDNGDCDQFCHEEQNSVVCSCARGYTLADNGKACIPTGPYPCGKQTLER
# Chain of Coagulation factor X (P00742 235-488 limits assumed): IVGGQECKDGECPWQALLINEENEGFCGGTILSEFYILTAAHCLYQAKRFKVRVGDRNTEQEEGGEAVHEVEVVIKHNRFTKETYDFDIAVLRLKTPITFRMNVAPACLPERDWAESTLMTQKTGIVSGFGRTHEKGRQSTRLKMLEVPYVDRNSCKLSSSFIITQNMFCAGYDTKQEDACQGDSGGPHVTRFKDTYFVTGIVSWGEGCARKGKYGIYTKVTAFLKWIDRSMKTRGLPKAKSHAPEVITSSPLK
row,Ki,SMILES
1,14 nM,Cc1c(F)c(Oc2cccc(C(=N)N)c2)nc(Oc2cccc(C(=N)N)c2)c1F
2,0.11 nM,"CN1CCN=C1c1cccc(Oc2nc(Oc3cc(C(=N)N)ccc3O)c(F)c(N3CCCC(C(=O)O)C3)c2F)c1 (stereo not drawn) [1-[2-(5-carbamimidoyl-2-hydroxyphenoxy)-3,5-difluoro-6-[3-(1-methyl-4,5-dihydro-1H-imidazol-2-yl)phenoxy]pyridin-4-yl]piperidine-3-carboxylic acid]"
3,1.6 nM,[H]/N=C(/C)N1CCC(Oc2ccc3c4ccccc4n(Cc4ccc5ccc(C(=N)N)cc5c4)c3c2)CC1 [ZK-806450]
